The source of these data is US20240409934A1, “FOXO1-TARGETED THERAPY FOR THE TREATMENT OF CANCER” (BOARD OF REGENTS, THE UNIVERSITY OF TEXAS SYSTEM, priority 2021, published 2024).

Common to all, as to format: cell-based
For one test, the system named is MDA-MB-468 cells. Description: Gene expression by qRT-PCR (TUBB reference). On the procedure:
(§1) Cell culture and drug treatments. Cell lines were obtained from ATCC (American Type Culture Collection, Manassas, VA) and grown under standard conditions (5% CO2, 10% FBS (fetal bovine serum), with 5% antifungal/antibacterial). Cell lines were tested for Mycoplasma using the MycoAlert Mycoplasma Detection Kit (Lonza, Basel Switzerland, cat: LT07-218); all experiments were done with mycoplasma negative cells. U87MG cells were propagated in MEM (Minimal Essential Medium). BT549 and DBTRG cells were propagated in RPMI (Roswell Park Memorial Institute 1640 Medium). LN18, U118MG, A172 and LN229 cells were propagated in DMEM (Dulbecco's Modified Eagle Medium). Neurosphere/cancer stem cell cultures for U87MG and BT549 cell lines were plated with 40,000 cells per mL in 3D Tumorsphere Medium XF (Sigma cat: C-28070, Burlington, MA). BT549 cancer stem cell cultures were supplemented with 1XB27 XenoFree CTS (Gibco/Thermo Fisher Waltham, MA, USA). AS1842856 was purchased from Calbiochem (Danvers, MA) and utilized at 200 nM, 500 nM and 1 μM final concentrations as indicated. AS1708727 was purchased from MedChem Express (Monmouth Junction, NJ) and was used at 0.5 μM, 1.0 µM and 2.0 μM concentrations. 5-aza-2'-deoxycytidine (5-AZA) was purchased from Millipore/Sigma (Burlington, MA) and utilized at a final concentration of 3 μM. Total RNA was prepared using the Qiagen RNeasy kit (Hilden, Germany), which was then used to generate cDNA using Superscript Reverse Transcriptase II (Invitrogen, Carlsbad, CA). Samples (cDNAs) were analyzed using (Power SYBR Green Master Mix, Applied Biosystems, Foster City, CA) and the ABI Step-One Real-time system (Carlsbad, CA). Expression levels were normalized to Beta-Tubulin, TUBB in gene expression experiments and calculated using 2-4ACT method (Livak et al., 2001). Primer sequences are detailed in Table 1. MDA-MB-468 cells were grown to log phase in DMEM with 10% FBS without antibiotics. BT549 cells were grown to log phase in DMEM with 10% FBS without antibiotics. Cells were transfected with FOXO1 esiRNA (EHU156591 Sigma, St. Louis, MO) or EGFP control esiRNA (EHUEGFP) using Lipofectamine 3000 (utilized only […] reagent, Invitrogen, Carlsbad, CA).

The subject of the next test is BT549 cells. Description: Gene expression by qRT-PCR (TUBB reference). As to the method: as §1
A further test relates to BT549. Description: Colony formation assay (crystal violet). Conditions: treated five days. As to the method: (§2) Cell culture and drug treatments. Cell lines were obtained from ATCC (American Type Culture Collection, Manassas, VA) and grown under standard conditions (5% CO2, 10% FBS (fetal bovine serum), with 5% antifungal/antibacterial). Cell lines were tested for Mycoplasma using the MycoAlert Mycoplasma Detection Kit (Lonza, Basel Switzerland, cat: LT07-218); all experiments were done with mycoplasma negative cells. U87MG cells were propagated in MEM (Minimal Essential Medium). BT549 and DBTRG cells were propagated in RPMI (Roswell Park Memorial Institute 1640 Medium). LN18, U118MG, A172 and LN229 cells were propagated in DMEM (Dulbecco's Modified Eagle Medium). Neurosphere/cancer stem cell cultures for U87MG and BT549 cell lines were plated with 40,000 cells per mL in 3D Tumorsphere Medium XF (Sigma cat: C-28070, Burlington, MA). BT549 cancer stem cell cultures were supplemented with 1XB27 XenoFree CTS (Gibco/Thermo Fisher Waltham, MA, USA). AS1842856 was purchased from Calbiochem (Danvers, MA) and utilized at 200 nM, 500 nM and 1 μM final concentrations as indicated. AS1708727 was purchased from MedChem Express (Monmouth Junction, NJ) and was used at 0.5 μM, 1.0 µM and 2.0 μM concentrations. 5-aza-2′-deoxycytidine (5-AZA) was purchased from Millipore/Sigma (Burlington, MA) and utilized at a final concentration of 3 μM. Cells were plated at a density of 2,700 cells per mL and were treated five days with indicated drug. Treatments were investigated in triplicate (in numerous independent experiments) and stained with crystal violet. Plates were aspirated of media then each well was washed with 1.0 mL of 1x phosphate buffered saline (PBS) once before being stained with 1.0 mL of crystal violet stain (0.5% crystal violet in buffered formalin) and incubated for 15 minutes. The stain was aspirated, and wells were washed 3 times with 0.5 mL of 1x PBS. After collections were completed, crystal violet-stained plates were solubilized using 0.5 mL on each well of 10% acetic acid and placed on shaker for 1 hour. Solubilized samples were transferred to 96 well plates and quantified on a spectrophotometer at 590 nm. Quantified plates were analyzed with a Tukey test. Error bars were added using the standard deviation. Cells were plated at 2,700 cells per mL and were treated five days with the indicated drug. Treatments were investigated in triplicate (in numerous independent experiments) and stained with crystal violet. Plates were aspirated of media, then each well was washed with 1.0 mL of 1× phosphate-buffered saline (PBS) once before being stained with 1.0 mL of crystal violet stain (0.5% crystal violet in buffered formalin) and incubated for 15 minutes. The stain was aspirated, and cells were washed three times with 0.5 mL of 1×PBS. After collections were completed, crystal violet-stained plates were solubilized using 0.5 mL on each well of 10% acetic acid and placed on a shaker for 1 hour. Solubilized samples were transferred to 96 well plates and quantified on a spectrophotometer at 590 nm using iMark Microplate Absorbance Reader (Bio-Rad, Hercules, CA). Quantified plates were analyzed with a Tukey Test. Error bars were added using the standard deviation.

The next test concerns LN18. In words: Colony formation assay (crystal violet). The settings on record: treated five days. On the procedure:
as §2

The subject of another test is A172. In words: Colony formation assay (crystal violet). The settings on record: treated five days. As to the method:
as §2

Another test relates to DBTRG. Description: Colony formation assay (crystal violet). The settings on record: treated five days. As to the method:
as §2

The test system of a further test is LN229. Description: Colony formation assay (crystal violet). The settings on record: treated five days. On the procedure:
as §2

For the next test, the system named is SW480. Description: Colony formation assay (crystal violet). Conditions: treated five days. On the procedure: [The procedure below names another cell line; the source lists this cell line under the same test.] as §2
For a further test, the system named is U87MG cells. In words: Colony formation assay (crystal violet). On the procedure: as §2
The next test relates to MDA-MB-468. In words: Colony formation assay (crystal violet). The settings on record: treated five days.

The structures appear in SMILES notation.

Consider `CCn1cc(C(=O)O)c(=O)c2c(N)c(F)c(NC3CCCCC3)cc21` [AS1842856, 5-Amino-7-(cyclohexylamino)-1-ethyl-6-fluoro-4-oxo-1,4-dihydroquinoline-3-carboxylic acid], for which the “FAS and BIM gene induction, comparison of the two inhibitors” value with MDA-MB-468 cells is “robustly caused FAS and BIM”; in the test on BT549 cells it was “robustly caused FAS and BIM”. The “apoptotic genes FAS and/or BIM expression” value in the test on MDA-MB-468 cells (1 μM for 48 hours) and in the test with BT549 cells (1 μM for 48 hours) was “induced apoptotic genes FAS and/or BIM” throughout. In addition, in the test on MDA-MB-468 cells (48 hours of treatment), the FOXO1 expression entry is “decreased FOXO1 expression”. Further, in the test on BT549 cells (1 μM for 48 hours), the FOXO1 gene expression entry is listed as “increased FOXO1 gene expression”. Besides, the colony formation result in the test with BT549 was “fewer cells with 200 nM drug treatment with further reductions using 500 nM and 1 μM drug”; in the test on LN18, “fewer cells with 200 nM drug treatment with further reductions using 500 nM and 1 μM drug”; in the test on A172, “fewer cells with 200 nM drug treatment with further reductions using 500 nM and 1 μM drug”; in the test on DBTRG it was “fewer cells with 200 nM drug treatment with further reductions using 500 nM and 1 μM drug”; in the test with LN229 it was “fewer cells with 200 nM drug treatment with further reductions using 500 nM and 1 μM drug”; in the test on SW480, “Significantly reduced colony formation”. Moreover, in the test on MDA-MB-468, the colony formation entry was “fewer cells with 200 nM drug treatment with further reductions using 500 nM and 1 μM drug”. Also, the colony number result in the test on U87MG cells was “colony number was not significantly impacted”.
